From US20100093993A1 (priority 2007, published 2010)

Legend:
[1] = tested on: intraperitoneal macrophage cells of a mouse; test: Measurement of macrophage activity: nitrite ion concentration (NO release, Griess reagent); type: cell-based; details: test compound 50 μM; for Nitrite Ion Concentration Relative Value: relative to TDCM = 1.0, 48 hours; for Nitrite Ion Concentration Actual Value: cultured 48 hours, mouse peritoneal macrophages, mean ± S.E.
Method: Macrophage activation indicates the condition wherein the adhesion to the tissue and the motility of the macrophages are improved, so that bacteria entering from outside or denatured self-components are phagocytized. Macrophage activity can be measured using the release of cytokine or active oxygen as an index. In Experimental Example 1 below, the macrophage activation ability was measured using the nitrite ion concentration as an index.
The present experiment was conducted with reference to the method described in Sakurai T., Kaise T., Matsubara C. Chem. Res. Toxicol. 1998, 11, 273-283. Specifically, ICR male mice (6 to 7 weeks old) were anesthetized, a phosphate buffer containing 0.05% EDTA was injected intraperitoneally, an intraperitoneal lavage was performed, and a peritoneal macrophage was aseptically recovered. After the cells were washed with an RPMI-1640 medium (containing 10% bovine fetal serum), the macrophage cells were inoculated so that there were 1×10^5 cells/100 μl in each well of the 96-well plate. After being pre-incubated for 2 hours, the test compound (50 μM) was added to the culture medium, and cultured for 48 hours. Afterwards, a Griess test reagent was added to the culture medium, which was allowed to stand for 10 minutes; the absorbency thereof was measured with a microplate reader (filter: 550/630 nm), after which the nitrite ion concentration (NO2^−) was determined from a calibration curve. The reproducibility of the above-described test was confirmed by 3 wells, the experiment was repeated at least three times using different mice, and the mean values ±S.E. were determined.

rabbit neutrophil [2] = test: Influence on rabbit neutrophil H2O2 production (H2DCFDA fluorescence); type: cell-based; details: 2 hours at 37° C., rabbit neutrophils
Method: The neutrophils (1.0×10^5 cells/100 μl) were inoculated in a 96-well plate (Falcon).

rabbit neutrophil [3] = test: Influence on the phagocytic action of neutrophils (opsonized ampicillin resistant E. coli, colony count); details: neutrophils treated 1 hour, then opsonized E. coli 1 hour
[4] = tested on: Clostridium perfringens (Type A NTCT8237); type: in vivo, ICR mice; details: emulsion solution 100 mg/mouse, 3 hours before C. perfringens 2.4×10^7 cells/mouse

CCCCCCCCCCC(CCCCCCCCCC)C(=O)NCC1O[C@H](O[C@H]2OC(CNC(=O)C(CCCCCCCCCC)CCCCCCCCCC)[C@@H](O)C(O)C2O)C(O)C(O)[C@@H]1O (stereo partly drawn) [Ex. 1, 6,6′-bis-N-(2-decyldodecanoylamino)-6,6′-dideoxy-α,α′-trehalose]
Nitrite Ion Concentration Relative Value [1]: 0.4 | Nitrite Ion Concentration Actual Value [1]: 200 ± 133 nM | H2O2 production (rabbit neutrophil [2]; 50 μM): 0.33 ± 0.05 nmol/10^5 Cells | H2O2 production (rabbit neutrophil [2]; 100 μM): 0.38 ± 0.05 nmol/10^5 Cells | The number of colonies (rabbit neutrophil [3]; 50 μM): 250 ± 11 | The number of colonies (rabbit neutrophil [3]; 100 μM): 487 ± 20 | The number surviving/Administered group After 2 hr [4]: 4/4 | The number surviving/Administered group After 6 hr [4]: 4/4 | The number surviving/Administered group After 12 hr [4]: 4/4 | The number surviving/Administered group After 24 hr [4]: 4/4 | The number surviving/Administered group after 48 hr [4]: 4/4

CCCCCCCCCCCC(CCCCCCCCCCC)C(=O)NCC1O[C@H](O[C@H]2OC(CNC(=O)C(CCCCCCCCCCC)CCCCCCCCCCC)[C@@H](O)C(O)C2O)C(O)C(O)[C@@H]1O (stereo partly drawn) [Ex. 2, 6,6′-bis-N-(2-undecyltridecanoylamino)-6,6′-dideoxy-α,α′-trehalose]
Nitrite Ion Concentration Relative Value [1]: 3.9 | Nitrite Ion Concentration Actual Value [1]: 1973 ± 973 nM | H2O2 production (rabbit neutrophil [2]; 50 μM): 0.25 ± 0.02 nmol/10^5 Cells | H2O2 production (rabbit neutrophil [2]; 100 μM): 0.26 ± 0.02 nmol/10^5 Cells | The number of colonies (rabbit neutrophil [3]; 50 μM): 89 ± 21 | The number of colonies (rabbit neutrophil [3]; 100 μM): 172 ± 13

CCCCCCCCCCCCC(CCCCCCCCCCCC)C(=O)NCC1O[C@H](O[C@H]2OC(CNC(=O)C(CCCCCCCCCCCC)CCCCCCCCCCCC)[C@@H](O)C(O)C2O)C(O)C(O)[C@@H]1O (stereo partly drawn) [Ex. 3, 6,6′-bis-N-(2-dodecyltetradecanoylamino)-6,6′-dideoxy-α,α′-trehalose]
Nitrite Ion Concentration Relative Value [1]: 2.4 | Nitrite Ion Concentration Actual Value [1]: 1202 ± 647 nM | H2O2 production (rabbit neutrophil [2]; 50 μM): 0.18 ± 0.03 nmol/10^5 Cells | H2O2 production (rabbit neutrophil [2]; 100 μM): 0.20 ± 0.03 nmol/10^5 Cells | The number of colonies (rabbit neutrophil [3]; 50 μM): 58 ± 9 | The number of colonies (rabbit neutrophil [3]; 100 μM): 112 ± 15

CCCCCCCCCCCCCC(CCCCCCCCCCCCC)C(=O)NCC1O[C@H](O[C@H]2OC(CNC(=O)C(CCCCCCCCCCCCC)CCCCCCCCCCCCC)[C@@H](O)C(O)C2O)C(O)C(O)[C@@H]1O (stereo partly drawn) [Ex. 4, 6,6′-bis-N-(2-tridecylpentadecanoylamino)-6,6′-dideoxy-α,α′-trehalose]
Nitrite Ion Concentration Relative Value [1]: 7.6 | Nitrite Ion Concentration Actual Value [1]: 3676 ± 385 nM | H2O2 production (rabbit neutrophil [2]; 50 μM): 0.15 ± 0.02 nmol/10^5 Cells | H2O2 production (rabbit neutrophil [2]; 100 μM): 0.18 ± 0.02 nmol/10^5 Cells | The number of colonies (rabbit neutrophil [3]; 50 μM): 200 ± 15 | The number of colonies (rabbit neutrophil [3]; 100 μM): 350 ± 30 | The number surviving/Administered group After 2 hr [4]: 4/4 | The number surviving/Administered group After 6 hr [4]: 4/4 | The number surviving/Administered group After 12 hr [4]: 4/4 | The number surviving/Administered group After 24 hr [4]: 4/4 | The number surviving/Administered group after 48 hr [4]: 4/4

CCCCCCCCCCCCCCC(CCCCCCCCCCCCCC)C(=O)NCC1O[C@H](O[C@H]2OC(CNC(=O)C(CCCCCCCCCCCCCC)CCCCCCCCCCCCCC)[C@@H](O)C(O)C2O)C(O)C(O)[C@@H]1O (stereo partly drawn) [Ex. 5, 6,6′-bis-N-(2-tetradecylhexadecanoylamino)-6,6′-dideoxy-α,α′-trehalose]
Nitrite Ion Concentration Relative Value [1]: 8.8 | Nitrite Ion Concentration Actual Value [1]: 4419 ± 4250 nM | H2O2 production (rabbit neutrophil [2]; 50 μM): 0.26 ± 0.04 nmol/10^5 Cells | H2O2 production (rabbit neutrophil [2]; 100 μM): 0.29 ± 0.04 nmol/10^5 Cells | The number of colonies (rabbit neutrophil [3]; 50 μM): 250 ± 16 | The number of colonies (rabbit neutrophil [3]; 100 μM): 450 ± 31 | The number surviving/Administered group After 2 hr [4]: 4/4 | The number surviving/Administered group After 6 hr [4]: 4/4 | The number surviving/Administered group After 12 hr [4]: 4/4 | The number surviving/Administered group After 24 hr [4]: 4/4 | The number surviving/Administered group after 48 hr [4]: 4/4

CCCCCCCCCCCCCCCC(CCCCCCCCCCCCCCC)C(=O)NCC1O[C@H](O[C@H]2OC(CNC(=O)C(CCCCCCCCCCCCCCC)CCCCCCCCCCCCCCC)[C@@H](O)C(O)C2O)C(O)C(O)[C@@H]1O (stereo partly drawn) [Ex. 6, 6,6′-bis-N-(2-pentadecylheptadecanoylamino)-6,6′-dideoxy-α,α′-trehalose]
Nitrite Ion Concentration Relative Value [1]: 1.7 | Nitrite Ion Concentration Actual Value [1]: 851 ± 608 nM | H2O2 production (rabbit neutrophil [2]; 50 μM): 0.11 ± 0.03 nmol/10^5 Cells | H2O2 production (rabbit neutrophil [2]; 100 μM): 0.16 ± 0.03 nmol/10^5 Cells | The number of colonies (rabbit neutrophil [3]; 50 μM): 120 ± 11 | The number of colonies (rabbit neutrophil [3]; 100 μM): 220 ± 12

CCCCCCCCCCCCCCCCC(CCCCCCCCCCCCCCCC)C(=O)NCC1O[C@H](O[C@H]2OC(CNC(=O)C(CCCCCCCCCCCCCCCC)CCCCCCCCCCCCCCCC)[C@@H](O)C(O)C2O)C(O)C(O)[C@@H]1O (stereo partly drawn) [Ex. 7, 6,6′-bis-N-(2-hexadecyloctadecanoylamino)-6,6′-dideoxy-α,α′-trehalose]
Nitrite Ion Concentration Relative Value [1]: 0.6 | Nitrite Ion Concentration Actual Value [1]: 300 ± 229 nM | H2O2 production (rabbit neutrophil [2]; 50 μM): 0.10 ± 0.03 nmol/10^5 Cells | H2O2 production (rabbit neutrophil [2]; 100 μM): 0.15 ± 0.02 nmol/10^5 Cells | The number of colonies (rabbit neutrophil [3]; 50 μM): 110 ± 7 | The number of colonies (rabbit neutrophil [3]; 100 μM): 200 ± 8

CCCCCCCCCCCCCCC[C@@H](O)[C@@H](CCCCCCCCCCCCCC)C(=O)OCC1O[C@H](O[C@H]2OC(COC(=O)[C@H](CCCCCCCCCCCCCC)[C@H](O)CCCCCCCCCCCCCCC)[C@@H](O)[C@H](O)C2O)C(O)[C@@H](O)[C@@H]1O (some centres unmarked) [TDCM, trehalose 6,6′-dicorynomycolate, reference compound]
Nitrite Ion Concentration Relative Value [1]: 1.0 | Nitrite Ion Concentration Actual Value [1]: 500 ± 271 nM | H2O2 production (rabbit neutrophil [2]; 50 μM): 0.18 ± 0.02 nmol/10^5 Cells | H2O2 production (rabbit neutrophil [2]; 100 μM): 0.21 ± 0.02 nmol/10^5 Cells | The number of colonies (rabbit neutrophil [3]; 50 μM): 50 ± 10 | The number of colonies (rabbit neutrophil [3]; 100 μM): 87 ± 10 | The number surviving/Administered group After 2 hr [4]: 4/4 | The number surviving/Administered group After 6 hr [4]: 4/4 | The number surviving/Administered group After 12 hr [4]: 4/4 | The number surviving/Administered group After 24 hr [4]: 4/4 | The number surviving/Administered group after 48 hr [4]: 4/4
